Measured values: ChEMBL document CHEMBL5055650, “4-Acyl Pyrrole Capped HDAC Inhibitors: A New Scaffold for Hybrid Inhibitors of BET Proteins and Histone Deacetylases as Antileukemia Drug Leads” (J Med Chem, 2021)
The source made the active and inactive calls. No cut-off for these calls is given here.

What was measured:
[1] = molecular target: T1, Bromodomain-containing protein 3 (Homo sapiens, UniProt Q15059); test: Binding affinity to human BRD3 domain 2 assessed as dissociation constant by isothermal titration calorimetry assay
T1 sequence (Q15059 whole entry, the tested form may be a part): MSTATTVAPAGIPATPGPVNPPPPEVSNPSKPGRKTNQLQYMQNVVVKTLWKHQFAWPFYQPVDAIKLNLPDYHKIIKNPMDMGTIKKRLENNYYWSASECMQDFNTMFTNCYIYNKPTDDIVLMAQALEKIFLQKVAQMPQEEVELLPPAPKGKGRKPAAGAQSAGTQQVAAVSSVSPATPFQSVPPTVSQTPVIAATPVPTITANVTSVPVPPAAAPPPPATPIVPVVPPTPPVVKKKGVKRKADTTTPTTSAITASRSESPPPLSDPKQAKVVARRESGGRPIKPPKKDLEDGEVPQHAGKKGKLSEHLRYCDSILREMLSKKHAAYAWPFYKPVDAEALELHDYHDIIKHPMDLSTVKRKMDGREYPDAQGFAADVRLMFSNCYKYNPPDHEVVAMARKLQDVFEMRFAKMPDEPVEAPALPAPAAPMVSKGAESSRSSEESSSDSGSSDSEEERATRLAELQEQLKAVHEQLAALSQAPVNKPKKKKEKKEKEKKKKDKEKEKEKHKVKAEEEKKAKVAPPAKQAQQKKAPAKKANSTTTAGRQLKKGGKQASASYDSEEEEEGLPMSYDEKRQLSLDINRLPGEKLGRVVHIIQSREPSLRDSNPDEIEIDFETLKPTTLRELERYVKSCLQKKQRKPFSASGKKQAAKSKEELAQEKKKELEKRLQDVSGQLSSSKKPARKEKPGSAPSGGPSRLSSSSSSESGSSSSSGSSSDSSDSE

TALL-1 [2] = test: Anticancer activity against human TALL-1 cells assessed as cell growth inhibition by CellTiter-Glo luminescent assay; format: functional, cell-based
[3] = molecular target: T2, Bromodomain-containing protein 7 (Homo sapiens, UniProt Q9NPI1); test: Binding affinity to human BRD7 assessed as dissociation constant by isothermal titration calorimetry assay
T2 sequence (Q9NPI1 whole entry): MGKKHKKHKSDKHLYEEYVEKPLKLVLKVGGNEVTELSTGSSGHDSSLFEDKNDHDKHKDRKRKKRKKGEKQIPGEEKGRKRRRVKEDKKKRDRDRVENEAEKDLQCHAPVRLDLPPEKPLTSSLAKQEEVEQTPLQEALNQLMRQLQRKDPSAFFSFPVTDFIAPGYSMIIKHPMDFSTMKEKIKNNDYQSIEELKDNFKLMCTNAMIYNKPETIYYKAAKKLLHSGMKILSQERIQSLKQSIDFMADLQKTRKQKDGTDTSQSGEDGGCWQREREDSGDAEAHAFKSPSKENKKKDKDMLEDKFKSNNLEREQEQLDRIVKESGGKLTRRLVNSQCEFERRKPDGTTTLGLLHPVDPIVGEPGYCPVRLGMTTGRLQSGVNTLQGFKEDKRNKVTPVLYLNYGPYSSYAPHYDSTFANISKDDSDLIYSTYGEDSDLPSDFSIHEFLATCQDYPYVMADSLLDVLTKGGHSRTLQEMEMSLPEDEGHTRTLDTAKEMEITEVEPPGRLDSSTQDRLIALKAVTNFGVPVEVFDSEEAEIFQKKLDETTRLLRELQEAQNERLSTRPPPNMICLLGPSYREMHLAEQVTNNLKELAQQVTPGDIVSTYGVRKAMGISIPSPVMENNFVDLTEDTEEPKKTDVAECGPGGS

HL-60 [4] = test: Cytotoxicity against human HL-60 cells assessed as cell viability at 5 uM by CellTiter-Glo luminescent assay; format: functional; conditions: read-out: Activity
Histone deacetylase 2 = Histone deacetylase 2 (Homo sapiens, UniProt Q92769); test: Inhibition of human HDAC2 assessed as target activity using fluorogenic substrate ZMAL for 90 min by microplate reader at 355nm
Chain of Histone deacetylase 2 (Q92769 whole entry): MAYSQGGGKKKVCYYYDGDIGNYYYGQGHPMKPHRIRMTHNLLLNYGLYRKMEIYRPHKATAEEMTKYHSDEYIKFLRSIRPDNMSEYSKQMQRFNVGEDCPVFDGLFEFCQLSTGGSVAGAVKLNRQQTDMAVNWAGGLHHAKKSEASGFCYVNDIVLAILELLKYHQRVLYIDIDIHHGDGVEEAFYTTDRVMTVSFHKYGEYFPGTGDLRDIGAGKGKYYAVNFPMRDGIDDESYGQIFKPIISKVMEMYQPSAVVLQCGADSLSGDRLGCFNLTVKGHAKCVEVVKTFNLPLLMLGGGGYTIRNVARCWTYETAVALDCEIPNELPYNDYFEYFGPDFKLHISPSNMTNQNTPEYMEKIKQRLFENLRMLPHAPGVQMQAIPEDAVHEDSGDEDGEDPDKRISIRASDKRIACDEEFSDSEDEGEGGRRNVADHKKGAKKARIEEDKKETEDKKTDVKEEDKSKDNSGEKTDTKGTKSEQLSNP

HL-60 [5] = test: Anticancer activity against human HL-60 cells assessed as cell growth inhibition by CellTiter-Glo luminescent assay; format: functional, cell-based
HPBALL [6] = test: Induction of apoptosis in human HPBALL cells assessed as decrease in MYC protein levels at 5 uM after 24 hrs by Western blot analysis; format: functional, cell-based
[7] = molecular target: T3, Protein deacetylase HDAC6 (Homo sapiens, UniProt Q9UBN7); test: Inhibition of human recombinant HDAC6 assessed as fluorescence using fluorogenic substrate ZMAL incubated for 90 min by microplate reader
T3 sequence (Q9UBN7 whole entry): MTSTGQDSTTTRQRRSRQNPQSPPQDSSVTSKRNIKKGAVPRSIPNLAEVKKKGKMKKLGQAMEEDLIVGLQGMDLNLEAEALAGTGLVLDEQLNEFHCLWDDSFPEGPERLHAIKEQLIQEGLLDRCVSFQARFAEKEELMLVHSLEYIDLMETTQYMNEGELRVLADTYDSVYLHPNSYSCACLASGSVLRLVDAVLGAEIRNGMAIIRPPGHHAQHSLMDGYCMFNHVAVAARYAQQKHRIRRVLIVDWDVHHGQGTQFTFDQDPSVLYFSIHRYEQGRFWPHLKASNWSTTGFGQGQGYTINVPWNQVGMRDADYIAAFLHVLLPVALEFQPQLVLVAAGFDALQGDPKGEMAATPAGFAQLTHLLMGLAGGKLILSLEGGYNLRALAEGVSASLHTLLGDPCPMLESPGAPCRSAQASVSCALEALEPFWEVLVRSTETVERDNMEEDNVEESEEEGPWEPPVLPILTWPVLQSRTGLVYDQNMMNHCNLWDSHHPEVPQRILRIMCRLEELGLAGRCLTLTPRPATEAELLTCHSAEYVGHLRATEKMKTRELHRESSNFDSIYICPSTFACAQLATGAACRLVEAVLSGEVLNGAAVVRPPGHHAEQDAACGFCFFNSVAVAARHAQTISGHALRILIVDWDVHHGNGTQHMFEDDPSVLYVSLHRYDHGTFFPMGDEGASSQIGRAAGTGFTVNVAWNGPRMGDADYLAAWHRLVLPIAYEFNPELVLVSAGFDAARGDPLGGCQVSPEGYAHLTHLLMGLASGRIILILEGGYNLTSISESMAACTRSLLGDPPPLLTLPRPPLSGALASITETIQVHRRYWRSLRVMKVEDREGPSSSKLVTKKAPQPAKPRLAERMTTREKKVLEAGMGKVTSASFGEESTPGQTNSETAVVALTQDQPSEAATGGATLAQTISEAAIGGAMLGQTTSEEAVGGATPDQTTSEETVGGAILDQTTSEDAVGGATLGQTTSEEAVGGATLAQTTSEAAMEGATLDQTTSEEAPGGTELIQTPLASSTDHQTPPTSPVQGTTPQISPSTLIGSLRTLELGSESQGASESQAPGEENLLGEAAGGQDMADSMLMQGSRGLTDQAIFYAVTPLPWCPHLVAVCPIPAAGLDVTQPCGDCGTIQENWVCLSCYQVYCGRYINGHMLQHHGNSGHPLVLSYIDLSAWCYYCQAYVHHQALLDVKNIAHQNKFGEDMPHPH

[8] = molecular target: Bromodomain-containing protein 4 (Homo sapiens, UniProt O60885); test: Binding affinity to human BRD4 domain 1 (unknown origin) assessed as dissociation constant by isothermal titration calorimetry assay; conditions: read-out: Kd
HPBALL [9] = test: Induction of apoptosis in human HPBALL cells assessed as increase in caspase3/7 activity at 5 uM after 48 hrs by luminescent based Glo assay; format: functional, cell-based
TALL-1 [10] = test: Cytotoxicity against human TALL-1 cells assessed as cell viability at 5 uM by CellTiter-Glo luminescent assay; format: functional; conditions: read-out: Activity
[11] = molecular target: T1, Bromodomain-containing protein 3; test: Binding affinity to human BRD3 domain 1 assessed as dissociation constant by isothermal titration calorimetry assay
REH = test: Anticancer activity against human REH cells assessed as cell growth inhibition by CellTiter-Glo luminescent assay; format: functional, cell-based
Histone deacetylase 3 = Histone deacetylase 3 (Homo sapiens, UniProt O15379); test: Inhibition of human HDAC3 assessed as target activity using fluorogenic substrate ZMAL for 90 min by microplate reader at 355nm
Chain of Histone deacetylase 3 (O15379 whole entry): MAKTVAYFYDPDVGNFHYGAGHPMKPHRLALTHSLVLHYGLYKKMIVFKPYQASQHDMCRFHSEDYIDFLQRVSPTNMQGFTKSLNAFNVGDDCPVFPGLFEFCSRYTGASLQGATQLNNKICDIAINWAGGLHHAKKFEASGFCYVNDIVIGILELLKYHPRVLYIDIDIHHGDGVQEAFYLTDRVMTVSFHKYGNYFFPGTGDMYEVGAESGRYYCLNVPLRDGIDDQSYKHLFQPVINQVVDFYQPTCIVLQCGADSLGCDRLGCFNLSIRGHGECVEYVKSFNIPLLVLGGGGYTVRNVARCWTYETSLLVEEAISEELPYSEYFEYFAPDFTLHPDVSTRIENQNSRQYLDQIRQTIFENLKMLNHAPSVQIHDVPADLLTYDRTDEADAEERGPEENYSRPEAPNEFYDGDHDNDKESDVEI

K562 = test: Anticancer activity against human K562 cells assessed as cell growth inhibition by CellTiter-Glo luminescent assay; format: functional, cell-based
[12] = molecular target: Histone deacetylase (Homo sapiens) (UniProt Q13547+O15379+Q9UBN7+Q92769+Q9UQL6+Q8WUI4+Q9BY41+Q96DB2+P56524+Q9UKV0+Q969S8); test: Inhibition of HDAC in human K562 cells assessed as increase in acetylated histone H3 measured after 48 hrs by Western blot analysis; format: cell-based
HAL-01 = test: Anticancer activity against human HAL-01 cells assessed as cell growth inhibition by CellTiter-Glo luminescent assay; format: functional, cell-based
HPBALL [13] = test: Anticancer activity against human HPBALL cells assessed as cell growth inhibition by CellTiter-Glo luminescent assay; format: functional, cell-based

Kd [1] [µM] | Kd [3] [µM] | IC50 (Histone deacetylase 2) [µM] | IC50 (HL-60 [5]) [µM] | IC50 [7] [µM] | Kd [8] [µM] | Kd [11] [µM] | IC50 (Histone deacetylase 3) [µM] | IC50 (K562) [µM] | Activity [12] | Structure (SMILES) | IC50 (TALL-1 [2]) [µM] | viability at 5 µM (HL-60 [4]) [%] | Activity (HPBALL [6]) | Activity (HPBALL [9]) | viability at 5 µM (TALL-1 [10]) [%] | IC50 (REH) [µM] | IC50 (HAL-01) [µM] | IC50 (HPBALL [13]) [µM] | inhibition (HPBALL [9])
3.75 | 0.23 | 0.208 | 4.63 | 0.046 | 0.79 | 1.5 | 0.064 | 2.9 | Active | COc1ccc(S(=O)(=O)n2ccc(/C=C/C(=O)NO)c2)cc1NC(=O)c1[nH]c(C)c2c1CCCCC2=O | 2.33 | 42.3 | Active | Active | 10.6 | 9.76 | 6.41 | 6.31 | –
7.55 | 8.5 | 0.359 | 7.82 | 0.042 | 2.98 | 5.65 | 0.119 | 3.4 | Active | CCc1c(C(=O)Nc2cc(/C=C/C(=O)NO)ccc2OC)[nH]c(C)c1C(C)=O | 2.88 | 22.1 | Active | – | 15.1 | > 25 | > 25 | 6.79 | Active

Structure (SMILES) | Kd [1] [µM] | Kd [3] [µM] | IC50 (Histone deacetylase 2) [µM] | IC50 (HL-60 [5]) [µM] | IC50 [7] [µM] | Kd [8] [µM] | Kd [11] [µM] | IC50 (Histone deacetylase 3) [µM] | IC50 (K562) [µM] | Activity [12] | IC50 (TALL-1 [2]) [µM] | viability at 5 µM (HL-60 [4]) [%] | Activity (HPBALL [6]) | Activity (HPBALL [9]) | viability at 5 µM (TALL-1 [10]) [%] | IC50 (REH) [µM] | IC50 (HAL-01) [µM] | IC50 (HPBALL [13]) [µM] | inhibition (HPBALL [9])
Cc1[nH]c(C(=O)Nc2cc(S(=O)(=O)N3CCOCC3)ccc2OCCCCCCCC(=O)NO)c2c1C(=O)CCCC2 | 0.1 | 0.125 | 0.534 | 2.75 | 0.067 | 0.076 | 0.037 | 0.296 | 5.99 | Active | 2.93 | 35.9 | Active | Active | 50 | 7.79 | 5.93 | 7.13 | –
